Series [1] is described as follows: Selectivity of Tpl2 to PKC.
The nature of series [2]: Selectivity of Tpl2 to PKA.
Series [3] in a line: Membrane permeability by PAMPA assay. Format: ADME. The following applies: read-out: permeability.
A short description of series [4]: Selectivity of Tpl2 to MK2.
Series [5] can be described thus: Selectivity of Tpl2 to Src.
Series [6] can be described thus: Selectivity of Tpl2 to CAMK2.
Series [7] can be described thus: Selectivity of Tpl2 to p38.
Series [8] in a line: Selectivity of Tpl2 to EGFR.

`N#Cc1cnc2c(Br)cc(NCc3cn(CCC4CCCN4)nn3)cc2c1Nc1ccc(F)c(Cl)c1` (centres undefined): the fold change (FC) in series [1], in series [2], in series [4], in series [5], in series [6] and in series [7] was 10 throughout. Further, the Papp in series [3] stood at 0.72 ×10⁻⁶ cm/s.
For the compound `CN1CCCC1CCn1cc(CNc2cc(Cl)c3ncc(C#N)c(Nc4ccc(F)c(Cl)c4)c3c2)nn1` (centres undefined), the fold change (FC) in series [1], in series [2], in series [4], in series [5], in series [6] and in series [7] was 10 throughout.
In the case of `N#Cc1cnc2c(Cl)cc(NCc3cn(Cc4ccccn4)nn3)cc2c1Nc1ccc(F)c(Cl)c1`, the fold change (FC) in series [1], in series [2], in series [4], in series [5], in series [6] and in series [7] was 10 in each case.
With `N#Cc1cnc2c(Cl)cc(NCc3cn(-c4ccccc4)nn3)cc2c1Nc1ccc(F)c(Cl)c1`, the fold change (FC) in series [1], in series [2], in series [4], in series [5], in series [6] and in series [7] was 10 in each case.
As for `CN(C)CCn1cc(CNc2cc(Cl)c3ncc(C#N)c(Nc4ccc(F)c(Cl)c4)c3c2)nn1`, the fold change (FC) in series [1], in series [2], in series [4], in series [5], in series [6] and in series [7] was 10 throughout.
Take `N#Cc1cnc2c(Cl)cc(NCc3cn(C4CCN(C5CCC5)CC4)nn3)cc2c1Nc1ccc(F)c(Cl)c1`: the fold change (FC) in series [1], in series [2], in series [4], in series [5], in series [6] and in series [7] was 10 in each case. Further, in series [3], the Papp was found to be 0.43 ×10⁻⁶ cm/s.
Turning to `CN1CCC(n2cc(CNc3cc(Cl)c4ncc(C#N)c(Nc5ccc(F)c(Cl)c5)c4c3)nn2)CC1`, the fold change (FC) in series [1], in series [2], in series [4], in series [5], in series [6] and in series [7] was 10 each time. For the same compound, the Papp in series [3] is 0.39 ×10⁻⁶ cm/s.
With `N#Cc1cnc2c(Br)cc(NCc3cn(-c4ccccc4)nn3)cc2c1Nc1ccc(F)c(Cl)c1`, the fold change (FC) in series [1], in series [2], in series [4], in series [5], in series [6] and in series [7] was 10 throughout. The Papp in series [3] stood at 1.2 ×10⁻⁶ cm/s.
For the compound `N#Cc1cnc2c(Cl)cc(NCc3cn(CCN4CCCCC4)nn3)cc2c1Nc1ccc(F)c(Cl)c1`, the fold change (FC) in series [1], in series [2], in series [4], in series [5], in series [6] and in series [7] was 10 in each case.
For `N#Cc1cnc2c(Cl)cc(NCc3cn(CCN4CCCCCC4)nn3)cc2c1Nc1ccc(F)c(Cl)c1`, the fold change (FC) in series [1], in series [2], in series [4], in series [5], in series [6] and in series [7] was 10 throughout.
In the case of `N#Cc1cnc2c(Cl)cc(NCc3cn(CCN4CCOCC4)nn3)cc2c1Nc1ccc(F)c(Cl)c1`, the fold change (FC) in series [1], in series [2], in series [4], in series [5], in series [6] and in series [7] was 10 each time.
On to `CC(C)N1CCC(n2cc(CNc3cc(Cl)c4ncc(C#N)c(Nc5ccc(F)c(Cl)c5)c4c3)nn2)CC1`, for which the fold change (FC) in series [1], in series [2], in series [4], in series [5], in series [6] and in series [7] was 10 in each case.
In the case of `N#Cc1cnc2c(Br)cc(NCc3cn(Cc4cccnc4)nn3)cc2c1Nc1ccc(F)c(Cl)c1`, the fold change (FC) in series [1], in series [2], in series [4], in series [5], in series [6] and in series [7] was 10 each time. Besides, the Papp in series [3] is 0.13 ×10⁻⁶ cm/s.
In the case of `N#Cc1cnc2c(Cl)cc(NCc3c[nH]nn3)cc2c1Nc1ccc(F)c(Cl)c1`, the fold change (FC) in series [1], in series [2], in series [4], in series [5], in series [6] and in series [7] was 10 throughout. Further, in series [8], the fold change (FC) was determined as 10.
Consider `CC(C)(C)n1cc(CNc2cc(Br)c3ncc(C#N)c(Nc4ccc(F)c(Cl)c4)c3c2)nn1`, for which the fold change (FC) in series [1], in series [2], in series [4], in series [5], in series [6] and in series [7] was 10 in each case.
Consider `CC(C)(C)n1cc(CNc2cc(Cl)c3ncc(C#N)c(Nc4ccc(F)c(Cl)c4)c3c2)nn1`, for which the fold change (FC) in series [1], in series [2], in series [4], in series [5] and in series [7] was 10 throughout. The Papp in series [3] is 0.1 ×10⁻⁶ cm/s.
Regarding `N#Cc1cnc2c(Cl)cc(NCc3cn(CC(=O)O)nn3)cc2c1Nc1ccc(F)c(Cl)c1`, the fold change (FC) in series [1], in series [2], in series [4], in series [5], in series [6] and in series [7] was 10 in each case. For the same compound, in series [3], the Papp was 0.04 ×10⁻⁶ cm/s.
`CCCN1CCC(n2cc(CNc3cc(Cl)c4ncc(C#N)c(Nc5ccc(F)c(Cl)c5)c4c3)nn2)CC1`: the fold change (FC) in series [1], in series [2], in series [4], in series [5], in series [6] and in series [7] was 10 in each case. Moreover, in series [3], the Papp came to 0.48 ×10⁻⁶ cm/s.
Consider `N#Cc1cnc2c(Br)cc(NCc3cn(CC(=O)O)nn3)cc2c1Nc1ccc(F)c(Cl)c1`, for which the fold change (FC) in series [1], in series [2], in series [4], in series [5], in series [6] and in series [7] was 10 each time. In addition, in series [3], the Papp came to 1.8 ×10⁻⁶ cm/s.
With `N#Cc1cnc2c(Cl)cc(NCc3cn(Cc4ccccc4)nn3)cc2c1Nc1ccc(F)c(Cl)c1`, the fold change (FC) in series [1], in series [2], in series [4], in series [5], in series [6] and in series [7] was 10 each time.
For `N#Cc1cnc2c(Cl)cc(NCc3cn(Cc4cccnc4)nn3)cc2c1Nc1ccc(F)c(Cl)c1`, the fold change (FC) in series [1], in series [2], in series [4], in series [5], in series [6] and in series [7] was 10 throughout. Moreover, the Papp in series [3] is 0.18 ×10⁻⁶ cm/s.
Regarding `N#Cc1cnc2c(Cl)cc(NCc3cn(CCC4CCCN4)nn3)cc2c1Nc1ccc(F)c(Cl)c1` (centres undefined), the fold change (FC) in series [1], in series [2], in series [4], in series [5], in series [6] and in series [7] was 10 each time. The Papp in series [3] was 0.57 ×10⁻⁶ cm/s.
As to `N#Cc1cnc2c(Cl)cc(NCc3cn(CCN)nn3)cc2c1Nc1ccc(F)c(Cl)c1`, the fold change (FC) in series [1], in series [2], in series [4], in series [5], in series [6] and in series [7] was 10 throughout.
Consider `N#Cc1cnc2c(Cl)cc(NCc3cn(CCCN)nn3)cc2c1Nc1ccc(F)c(Cl)c1`, for which the fold change (FC) in series [1], in series [2], in series [4], in series [5], in series [6] and in series [7] was 10 throughout.
For the compound `CCN1CCC(CCn2cc(CNc3cc(Cl)c4ncc(C#N)c(Nc5ccc(F)c(Cl)c5)c4c3)nn2)CC1`, the fold change (FC) in series [1], in series [2], in series [4], in series [5], in series [6] and in series [7] was 10 in each case.
Take `N#Cc1cnc2c(Cl)cc(NCc3cn(C4CCNCC4)nn3)cc2c1Nc1ccc(F)c(Cl)c1`: the fold change (FC) in series [1], in series [2], in series [4], in series [5], in series [6] and in series [7] was 10 each time. Besides, the Papp in series [3] was 0.03 ×10⁻⁶ cm/s.
As for `N#Cc1cnc2c(Br)cc(NCc3c[nH]nn3)cc2c1Nc1ccc(F)c(Cl)c1`, the fold change (FC) in series [1], in series [2], in series [4], in series [5] and in series [7] was 10 each time.
In the case of `N#Cc1cnc2c(Cl)cc(NCc3cn(-c4cccnc4)nn3)cc2c1Nc1ccc(F)c(Cl)c1`, the fold change (FC) in series [1], in series [2], in series [4], in series [5], in series [6] and in series [7] was 10 in each case.

For the origin of these results see ChEMBL document CHEMBL1136974, “Selective inhibitors of tumor progression loci-2 (Tpl2) kinase with potent inhibition of TNF-alpha production in human whole blood” (Bioorg Med Chem Lett, 2009).
